Assay results from patent US8603527B2, “Pharmaceutical formulations of a substituted diaminopurine” (Signal Pharmaceuticals, LLC, priority 2010, dated 2013).
Read-outs that look alike come from different tables or passages of the source.

How the values were obtained:
[1] = test system: time-mated female CD [Crl:CD(SD)] rats; test: Oral developmental toxicity study in the rat; type: in vivo
Procedure: (§1) Compound I was administered orally to four groups of 25 time-mated female CD®[Crl:CD®(SD)] rats/group at dose levels of 0 (vehicle, 1.0% carboxymethylcellulose/0.25% TWEEN® 80), 25, 50, or 100 mg/kg/day from Gestation Days (GD) 6 to 17. In addition, four groups of five time-mated females/group served as toxicokinetic (TK) animals and received the vehicle or test article in the same manner as the main study groups.

[2] = Oral developmental toxicity study in the rat; type: in vivo; conditions: female, CD [Crl:CD(SD)], rat, in vivo, oral; rats; read-out: NOAEL for maternal toxicity
Procedure: as §1

[3] = Toxicokinetics in pregnant female rats; type: in vivo, rat; conditions: for concentration at 2 h / AUC / Cmax / Kp: female, rat; for concentration at 2 h / Kp: oral; for concentration at 2 h / Kp / Fetus concentration (pooled fetal blood samples): rats; for concentration at 2 h / Fetus concentration (pooled fetal blood samples): 2 hours after dosing on Gestation Day 17; for AUC / Cmax: pregnant rats; for Kp: fetal plasma / maternal plasma, Gestation Day 17, calculated from individual ratios, read-out: Fetal:Maternal Plasma Ratio
Procedure: Compound I was readily absorbed in pregnant rats following daily oral administration of Compound I for 11 days (GD 6-16). Exposures for Compound I increased in an approximately dose-proportional manner from 25 to 100 mg/kg/day.

[4] = test system: healthy subjects; test: Safety in the gender, age and food study in healthy subjects; type: in vivo, human; conditions: 100 mg single oral dose, all age groups, each gender, fasting and fed
Procedure: Group 1 (Healthy Females) and Group 3 (Elderly Males and Females): Subjects were screened within 21 days of dosing and eligible subjects were admitted to the study center on Day −1 (i.e., at least 12 hours predose) for baseline assessments and confirmation of eligibility. A single oral dose of 100 mg Compound I was administered on Day 1 following an overnight fast of at least 8 hours. Subjects were discharged from the study center the morning of Day 3 upon completion of study procedures and returned to the study center for PK blood draws and safety assessments on Days 4, 5, and 6. The end-of-study (EOS) evaluation also occurred on Day 6. Subjects returned to the study center for a follow-up visit between 7 and 10 days from EOS. Serial blood samples were collected predose and up to 120 hours postdose for the determination of plasma Compound I concentrations. Safety was monitored throughout the study; safety evaluations included AE reporting, physical examinations, vital sign measurements, ECGs, and clinical laboratory safety tests. All AEs and concomitant medications were assessed and recorded throughout the study from the time the ICF was signed through follow-up.
Group 2 (Healthy Males): Subjects in Group 2 participated in this portion of the study to evaluate food effect using a randomized, open-label, single dose, 2-period (Period 1 and Period 2), 2-sequence, 2-way crossover design. […]

[5] = test system: time-mated female New Zealand White Hra:(NZW)SPF rabbits; conditions: rabbit, in vivo, 10 mg/kg/day
Description: Additionally, four groups of five animals/group served as toxicokinetic (TK) animals and received the vehicle or test article in the same manner and dose levels as the main study groups. All time-mated females arrived at the laboratory on GD 0, the day evidence of mating was observed.

[6] = CD [Crl:CD(SD)], plasma, 25 mg/kg/day, 25 mg/kg/d oral, Gestation Day 16
[7] = CD [Crl:CD(SD)], plasma, 50 mg/kg/day, 50 mg/kg/d oral, Gestation Day 16
[8] = CD [Crl:CD(SD)], plasma, 100 mg/kg/day, 100 mg/kg/d oral, Gestation Day 16
[9] = Crl:CD(SD), plasma, 25 mg/kg/day, 25 mg/kg/d oral, Gestation Day 6
[10] = Crl:CD(SD), plasma, 50 mg/kg/day, 50 mg/kg/d oral, Gestation Day 6
[11] = Crl:CD(SD), plasma, 100 mg/kg/day, 100 mg/kg/d oral, Gestation Day 6

## O[C@H]1CC[C@H](Nc2ncc3nc(Nc4c(F)cc(F)cc4F)n([C@H]4CCOC4)c3n2)CC1 [Compound I, 4-((9-((3S)-tetrahydro-3-furanyl)-8-((2,4,6-trifluorophenyl)amino)-9H-purin-2-yl)amino)-trans-cyclohexanol]
[1]; female, CD [Crl:CD(SD)], rat, in vivo
  doses at which developmental effects were observed: > 25 mg/kg/day
[1]; rat, in vivo
  teratogenicity: teratogenic
[1]; rat, in vivo, 25 mg/kg/day
  maternal toxicity: No maternal toxicity
[1]; rat, in vivo, 100 mg/kg/day
  incidence of fetal malformations involving heart and aortic vessels, ribs, and/or vertebrae: slight increase
  post implantation loss index: increased
[1]; rat, in vivo, po, 25 mg/kg/day
  fetal weights lower than controls: about 6%
[1]; rat, in vivo, po, 50 mg/kg/day
  fetal body weights lower than controls: about 11%
[1]; rat, in vivo, po, 100 mg/kg/day
  fetal body weights lower than controls: ~27%
[1]; rats
  NOEL for developmental toxicity: 25 mg/kg/day
  lowest observed effect level (LOEL), developmental effects: 25 mg/kg/day
[2]
  NOAEL: 25 mg/kg/day
[3]; CD [Crl:CD(SD)], fetal blood (pooled), 25 mg/kg/day, 25 mg/kg/d, read-out: Fetus concentration (pooled fetal blood samples)
  concentration at 2 h: 897 ng/mL
[3]; [6]
  AUC: 19700 ng·h/mL
  Cmax: 1930 ng/mL
[3]; [7]
  AUC: 42300 ng·h/mL
  Cmax: 4210 ng/mL
[3]; [8]
  AUC: 96900 ng·h/mL
  Cmax: 8130 ng/mL
[3]; CD [Crl:CD(SD)], plasma, 25 mg/kg/day, 25 mg/kg/d, read-out: Dam plasma concentration
  concentration at 2 h: 1520 ng/mL
[3]; CD [Crl:CD(SD)], plasma, 50 mg/kg/day, 50 mg/kg/d, read-out: Dam plasma concentration
  concentration at 2 h: 3410 ng/mL
[3]; CD [Crl:CD(SD)], plasma, 100 mg/kg/day, 100 mg/kg/d, read-out: Dam plasma concentration
  concentration at 2 h: 6650 ng/mL
[3]; Crl:CD(SD), 25 mg/kg/day, 25 mg/kg/d
  Kp: 0.59
[3]; Crl:CD(SD), 50 mg/kg/day, 50 mg/kg/d
  Kp: 0.61
[3]; Crl:CD(SD), 100 mg/kg/day, 100 mg/kg/d
  Kp: 0.61
[3]; [9]
  AUC: 19500 ng·h/mL
  Cmax: 2420 ng/mL
[3]; [10]
  AUC: 49500 ng·h/mL
  Cmax: 3920 ng/mL
[3]; [11]
  AUC: 102000 ng·h/mL
  Cmax: 6790 ng/mL
[3]; rats at LOEL 25 mg/kg/day vs human 100 mg BID
  maternal AUC as fold of human AUC: ~0.8 fold
[3]; rats at LOEL 25 mg/kg/day vs human 200 mg BID
  maternal AUC as fold of human AUC: ~0.4 fold
[3]; 50 mg/kg/d
  Fetus concentration (pooled fetal blood samples): 2115 ng/mL
[3]; 100 mg/kg/d
  Fetus concentration (pooled fetal blood samples): 4012 ng/mL
[4]
  tolerability: well tolerated
[5]
  maternal or developmental toxicity: No maternal or developmental toxicity
